# Experimental data reported in patent US20030170858A1, “Gyrase inhibitors and uses thereof” (priority 2001, published 2003).
# Molecular target: E. coli gyrase A2B2 (Escherichia coli, UniProt P0AES6)
# Test: E. coli gyrase A2B2 ATPase assay
# Assay type: biochemical
# Conditions: 40 nM Gyr A2B2 from E coli, 0.9 mM ATP, 30° C., read-out: Activity against E. coli gyrase (Ki)
# Protocol: The ATP hydrolysis activity of DNA gyrase was measured by coupling the production of ADP through pyruvate kinase/lactate dehydrogenase to the oxidation of NADH. This method has been described previously. (Tamura and Gellert, 1990, J. Biol. Chem. 265, 21342-21349).
# ATPase assays were carried out at 30° C. in buffered solutions containing 100 mM TRIS pH 7.6, 1.5 mM MgCl2, and 150 mM KCl. The coupling system contained (final concentrations) 2.5 mM phosphoenol pyruvate, 200 μM nicotinamide adenine dinucleotide (NADH), 1 mM DTT, 30 ug/ml pyruvate kinase, and 10 ug/ml lactate dehydrogenase. 40 nM enzyme (374 kDa Gyr A2B2 from E coli) and a DMSO solution of the inhibitor to a final concentration of 4% were added and the reaction mixture allowed to incubate for 10 minutes at 30° C. The reaction was then started by the addition of ATP to a final concentration of 0.9 mM and the rate of NADH disappearance at 340 nm, measured over the course of 10 minutes. Ki values were determined from rate versus. inhibitor concentration profiles.
structure (smiles),measurement,value
CCOC(=O)c1cc(-c2sc(-c3cccnc3)nc2CN2CCNCC2)n[nH]1 [IA-67],Ki,500 to 1500 nM
